Columns and labels:
MCF-7 cells = assay: MTT cytotoxicity assay, MCF-7; type: cell-based, human; conditions: MCF7; human breast cancer cell line; MTT, 48 h exposure; mean ± SD, three independent experiments
Description: (§1) All compounds were evaluated for their in vitro cytotoxic activity against five human cancer cell lines including human breast MCF-7, human breast MDA-MB-435, human lung A549, human liver HepG2 and human colon HCT-116, and compared with their effects on the immortalized human breast epithelial cell line MCF-10A by MTT assay using epirubicin (an anticancer drug used widely in the clinic) as positive control.
(§2) MCF-7, MDA-MB-435, A549, HepG2 and HCT-116 cells were cultured in Dulbecco’s modification Eagle’s medium (DMEM, Invitrogen, Carlsbad, CA, USA) supplemented with 10% fetal bovine serum (FBS, Hyclone, Logan, UT, USA), 2 mM L-glutamine, 100 μg/mL streptomycin and 100 U/mL penicillin (Invitrogen). MCF-10A cells were cultured in keratinocyte serum free medium (KSFM) supplemented with 0.1–0.2 ng/mL human recombinant epidermal growth factor and 20–30 μg/mL bovine pituitary extract (Invitrogen). The cells were incubated at 37 °C in a humidified atmosphere with 5% CO2.
(§3) Cells were harvested during logarithmic growth phase and seeded in 96-well plates at a density of 1 × 10^4 cells/mL, and cultured at 37 °C in a humidified incubator (5% CO2) for 24 h, followed by exposure to various concentrations of compounds tested for 48 h. Subsequently 20 μL of MTT (Genview, Houston, TX, USA) solution (5 mg/mL) was added to each well and mixed, the cells were then incubated for an additional 4 h. Culture supernatant was moved, 150 μL of DMSO (Sangon Biotech, Shanghai, China) was added to each well to fully dissolve the MTT-formazan crystals. Cell growth inhibition was determined by measuring the absorbance (Abs) at λ = 570 nm using a microplate reader and calculated according to the following equation:
(§4) Growth inhibition = (1 − OD of treated cells/OD of control cells) × 100%
(§5) The half maximal inhibitory concentrations (IC50) were obtained from liner regression analysis of the concentration-response curves plotted for each tested compound.

[1] = MTT cytotoxicity assay, MCF-10A; type: cell-based; conditions: MCF-10A cells, immortalized human breast epithelial cell line, 48 h exposure, mean ± SD, three independent experiments
Description: as §1, §2, §3, §4, §5

HepG2 cells = assay: MTT cytotoxicity assay, HepG2; type: cell-based, human; conditions: Homo sapiens, HepG2, 48 h, human liver cancer cell line; MTT, 48 h exposure; mean ± SD, three independent experiments
Description: as §1, §2, §3, §4, §5

A549 cells = assay: MTT cytotoxicity assay, A549; type: cell-based, human; conditions: A549; human lung cancer cell line; MTT, 48 h exposure; mean ± SD, three independent experiments
Description: as §1, §2, §3, §4, §5

MDA-MB-435 cells = assay: MTT cytotoxicity assay, MDA-MB-435; type: cell-based, human; conditions: MDA-MB-435; human breast cancer cell line; MTT, 48 h exposure; mean ± SD, three independent experiments
Description: as §1, §2, §3, §4, §5

HCT-116 cells = assay: MTT cytotoxicity assay, HCT-116; type: cell-based, human; conditions: HCT-116; human colon cancer cell line; MTT, 48 h exposure; mean ± SD, three independent experiments
Description: as §1, §2, §3, §4, §5

| SMILES | IC50 (MCF-7 cells) [µM] | IC50 at 48 h [1] [µM] | IC50 (HepG2 cells) [µM] | IC50 (A549 cells) [µM] | IC50 (MDA-MB-435 cells) [µM] | IC50 (HCT-116 cells) [µM] | melting point [°C] |
| --- | --- | --- | --- | --- | --- | --- | --- |
| COC1=CC(=O)c2c(O)c3c(c(O)c2C1=O)C[C@](C)(O)[C@H](O)[C@H]3O [Compound 1, Bostrycin] | 2.18 ± 0.14 | 14.1 ± 0.58 | 7.71 ± 0.72 | 2.63 ± 0.33 | 2.82 ± 0.17 | 4.78 ± 0.03 |  |
| COC1=CC(=O)c2c(O)c3c(c(O)c2C1=O)C[C@](C)(O)[C@H](O)C3 [Compound 2, Deoxybostrycin] | 2.69 ± 0.31 | 13.8 ± 0.76 | 9.99 ± 0.55 | 4.49 ± 0.13 | 3.19 ± 0.92 | 5.69 ± 0.25 | 224 to 225 |
| COC1=CC(=O)c2c(cc3c(c2O)C[C@@H](O)[C@@](C)(O)C3)C1=O [Compound 3, Nigrosporin B] | 6.19 ± 0.6 | 28.6 ± 0.91 | 31 ± 0.71 | 4.72 ± 0.17 | 2.91 ± 0.18 | 4.7 ± 0.39 | > 300 |
| COC1=CC(=O)c2c(O)c3c(c(O)c2C1=O)C[C@]1(C)OC(C)(C)O[C@@H]1[C@H]3O [Compound 5, 2,3-O-(isopropylidene) Bostrycin] | 6.87 ± 0.33 | 18.1 ± 1.3 | 37 ± 1.97 | 4.25 ± 0.16 | 5.96 ± 0.21 | 11 ± 1.35 | 228 to 229 |
| COC1=CC(=O)c2c(O)c3c(c(O)c2C1=O)C[C@]1(C)OC(C=C(C)C)O[C@@H]1[C@H]3O (stereo partly drawn) [Compound 6, 2,3-O-(3′-methylbut-2′-enyl) Bostrycin] | 7.99 ± 0.09 | 34.1 ± 0.85 | 22.3 ± 2.89 | 5.5 ± 0.24 | 11.7 ± 1.18 | 7.83 ± 0.32 | 200 to 201 |
| COC1=CC(=O)c2c(O)c3c(c(O)c2C1=O)C[C@]1(C)OCO[C@@H]1[C@H]3OCO [Compound 7, 1-O-(hydroxymethyl)-2,3-O-(methylene) Bostrycin] | 2.52 ± 0.26 | 4.79 ± 0.52 | 4.58 ± 0.5 | 0.78 ± 0.04 | 4.25 ± 0.57 | 3.06 ± 0.1 | 233 to 234 |
| COC1=CC(=O)c2c(O)c3c(c(O)c2C1=O)C[C@]1(C)OC(=O)O[C@@H]1[C@H]3O [Compound 8, 2,3-O-(carbonyl) Bostrycin] | 1.59 ± 0.16 | 21.7 ± 1.45 | 3.32 ± 0.58 | 0.52 ± 0.02 | 1.26 ± 0.12 | 2.92 ± 0.06 | 246 to 247 |
| CNC1=CC(=O)c2c(O)c3c(c(O)c2C1=O)C[C@](C)(O)[C@H](O)[C@H]3O [Compound 9, 6-(Methylamino)-6-demethoxybostrycin] | 3.58 ± 0.65 | > 50 | 22.4 ± 1.16 | 31.1 ± 1.94 | > 50 | 34.2 ± 1.27 |  |
| CCCCCCNC1=CC(=O)c2c(O)c3c(c(O)c2C1=O)C[C@](C)(O)[C@H](O)[C@H]3O [Compound 12, 6-(n-Hexylamino)-6-demethoxybostrycin] | 4.87 ± 0.23 |  | 12.9 ± 0.96 | 3.74 ± 0.67 | 4.25 ± 0.75 | 4.06 ± 0.65 | 203 to 204 |
| COc1ccc(NC2=CC(=O)c3c(O)c4c(c(O)c3C2=O)C[C@](C)(O)[C@H](O)[C@H]4O)cc1 [Compound 16, 6-(p-Methoxyphenylamino)-6-demethoxybostrycin] | 39.4 ± 0.68 |  | 30.3 ± 1.63 | 41.4 ± 2.86 | 36.4 ± 2.08 | 43.3 ± 1.56 | 202 to 203 |
| C[C@]1(O)Cc2c(O)c3c(c(O)c2[C@H](O)[C@H]1O)C(=O)C=C(N1CCCCC1)C3=O [Compound 20, 6-(Piperidin-1-yl)-6-demethoxybostrycin] | 3.14 ± 0.31 |  | 1.99 ± 0.17 | 3.16 ± 0.23 | 4.04 ± 0.35 | 2.81 ± 0.31 | 199 to 200 |
| CC1CCN(C2=CC(=O)c3c(O)c4c(c(O)c3C2=O)C[C@](C)(O)[C@H](O)[C@H]4O)CC1 [Compound 21, 6-(4′-Methylpiperidin-1-yl)-6-demethoxybostrycin] | 4.62 ± 0.44 |  | 6.09 ± 1.14 | 3.06 ± 0.46 | 6.38 ± 0.47 | 3.25 ± 0.67 | 162 to 163 |
| C[C@]1(O)Cc2c(O)c3c(c(O)c2[C@H](O)[C@H]1O)C(=O)C=C(N1CCC(c2ccccc2)CC1)C3=O [Compound 22, 6-(4′-Phenylpiperidin-1-yl)-6-demethoxybostrycin] | 4.81 ± 0.4 |  | 6.61 ± 1.12 | 0.76 ± 0.03 | 0.95 ± 0.13 | 0.75 ± 0.05 | 221 to 222 |
| C[C@]1(O)Cc2c(O)c3c(c(O)c2[C@H](O)[C@H]1O)C(=O)C(SCCO)=C(SCCO)C3=O [Compound 26, 6,7-bis(2′-Hydroxyethylthio)-6-demethoxybostrycin] | 14.4 ± 0.42 |  | 22.7 ± 1.95 | 26.1 ± 3.15 | 13.3 ± 0.2 | 12 ± 1.53 | 156 to 158 |
| C[C@]1(O)Cc2c(O)c3c(c(O)c2[C@H](O)[C@H]1O)C(=O)C(SCCCO)=C(SCCCO)C3=O [Compound 27, 6,7-bis(3′-Hydroxy-n-propylthio)-6-demethoxybostrycin] | 6.01 ± 0.39 |  | 3.18 ± 0.75 | 7.31 ± 0.58 | 3.19 ± 0.15 | 3.08 ± 0.35 | 150 to 151 |
| CC1SC2=C(SC1C)C(=O)c1c(O)c3c(c(O)c1C2=O)C[C@](C)(O)[C@H](O)[C@H]3O (stereo partly drawn) [Compound 29, 6,7-(Butan-2′,3′-yl-dithio)-6-demethoxybostrycin] | 3.18 ± 0.22 |  | 2.55 ± 0.55 | 4.06 ± 0.35 | 0.55 ± 0.11 | 0.73 ± 0.02 | 146 to 147 |
| COc1cccc2c1C(=O)c1c(O)c3c(c(O)c1C2=O)C[C@@](O)(C(=O)CO)C[C@@H]3O[C@H]1C[C@H](N)[C@@H](O)[C@H](C)O1 [epirubicin, reference compound] | 0.96 ± 0.08 | 0.48 ± 0.08 | 0.96 ± 0.02 | 0.61 ± 0.05 | 0.56 ± 0.06 | 0.48 ± 0.03 |  |

Source: paper PMC3366684, “Studies on the Synthesis of Derivatives of Marine-Derived Bostrycin and Their Structure-Activity Relationship against Tumor Cells” (Marine Drugs, 2012)
